# Measured values as given in patent publication US20230416291A1, “HIGH-PURITY ß-NICOTINAMIDE MONONUCLEOTIDE (NMN) AND METHOD FOR PRODUCING SAME” (MIRAILAB BIOSCIENCE INC., priority 2020, published 2023).
# How the values were obtained:
# [1] = Stability test on NMN produced by a conventional method (Comparative Examples); assay type: physicochemical
# Source text: Results of a stability test on NMN produced by a conventional method (method involving neither the step IV nor the step V according to the present invention) are shown as Comparative Examples in Table 2.
# [2] = Stability of high-purity βNMN on preservation, purity by LC-UV area normalization; assay type: physicochemical; details: for Purity, Average value: three samples
# Protocol: In the area normalization method based on LC-UV, a NMN sample is dissolved in an appropriate amount of water and subjected to LC-UV measurement at a detection wavelength of 266 nm using an apparatus, for example, LC-30AD (manufactured by Shimadzu Corp.). The ratio (%) of the area of the main component to the total area of chromatogram peaks of the obtained sample can be regarded as the purity (%) of βNMN. In the area normalization method based on LC-UV, the high-purity βNMN obtained in the section (5) was dissolved in an appropriate amount of water and subjected to LC-UV measurement under the following conditions. • Apparatus name: LC-30AD (manufactured by Shimadzu Corp.) • Detection wavelength: 266 nm The ratio (%) of the area of the main component to the total area of chromatogram peaks of the obtained sample was regarded as the purity (%) of βNMN. As a result, the purity of the high-purity βNMN obtained in the section (5) was 99.2%. The high-purity βNMN obtained in the section (5) was preserved at 4° C., 25° C., or 40° C. and examined for its stability. Each sample was provided as three samples per condition. The purity of βNMN in each sample during preservation, 1 month later, 2 months later, and 3 months later was measured by the area normalization method based on LC-UV.
structure (smiles),measurement,setting,value
"NC(=O)c1ccc[n+]([C@@H]2O[C@H](COP(=O)([O-])O)[C@@H](O)[C@H]2O)c1 [NMN produced by a conventional method, nicotinamide mononucleotide]",Purity,"[1]; 4° C., 1 day later",97.92%
same,Purity,"[1]; 4° C., 2 days later",97.78%
same,Purity,"[1]; 4° C., 3 days later",97.60%
same,Purity,"[1]; 4° C., 7 days later",97.57%
same,Purity,"[1]; 4° C., 15 days later",97.54%
same,Purity,"[1]; 4° C., 30 days later",97.26%
same,Purity,"[1]; 4° C., At start of preservation",97.94%
same,Purity,"[1]; 25° C., 1 day later",97.11%
same,Purity,"[1]; 25° C., 2 days later",96.04%
same,Purity,"[1]; 25° C., 3 days later",95.98%
same,Purity,"[1]; 25° C., 7 days later",90.55%
same,Purity,"[1]; 25° C., 15 days later",81.74%
same,Purity,"[1]; 25° C., 30 days later",65.66%
same,Purity,"[1]; 25° C., At start of preservation",97.94%
same,Stability in words,[1]; preserved at 4° C. for 30 days,able to maintain the purity obtained at the start of preservation for 30 days
"NC(=O)c1ccc[n+]([C@@H]2O[C@H](COP(=O)([O-])O)[C@@H](O)[C@H]2O)c1 [high-purity βNMN, β-nicotinamide mononucleotide]",Purity maintained on preservation,"[2]; for 3 months at any temperature of 4° C., 25° C., and 40° C.",≥ 99%
same,"Purity, Average value","[2]; preserved at 4° C., 1 month later",99.64%
same,"Purity, Average value","[2]; preserved at 4° C., 2 months later",99.51%
same,"Purity, Average value","[2]; preserved at 4° C., 3 months later",99.66%
same,"Purity, Average value","[2]; preserved at 4° C., During preservation",99.69%
same,"Purity, Average value","[2]; preserved at 25° C., 1 month later",99.26%
same,"Purity, Average value","[2]; preserved at 25° C., 2 months later",99.45%
same,"Purity, Average value","[2]; preserved at 25° C., 3 months later",99.57%
same,"Purity, Average value","[2]; preserved at 25° C., During preservation",99.69%
same,"Purity, Average value","[2]; preserved at 40° C., 1 month later",99.51%
same,"Purity, Average value","[2]; preserved at 40° C., 2 months later",99.27%
same,"Purity, Average value","[2]; preserved at 40° C., 3 months later",99.35%
same,"Purity, Average value","[2]; preserved at 40° C., During preservation",99.69%
